The text below walks through data of patent US7521451B2, “Isoindoline derivative” (Maruishi Pharmaceutical Co., Ltd., priority 2002, dated 2009).

Counter-ions that a name gives are not always drawn.

The subject of series [1] is mice. The conditions noted are these: comparison anesthetics, disclosed in Japanese Patent Application Laid Open No. 50-154410, cited from earlier work; for T. I.(mouse): LD50/HD50.
For series [2], the system named is mice. The conditions noted are these: comparison anesthetics, disclosed in Japanese Patent Application Laid Open No. 50-154410; cited from earlier work.

`CCOC(=O)CC1c2cc(C)c(C)cc2C(=S)N1c1cccnc1` (centres unmarked) gave a melting point of 158 to 158.5 °C.

`Cc1cc2c(cc1C)C(C(=O)O)N(c1cccc(F)c1)C2=O` (centres unmarked) (as salt: hydrochloride) had a melting point of 152 to 157.5 °C. `Cc1cc2c(cc1C)C(OCC(=O)O)N(c1cccc(F)c1)C2=O` (centres unmarked) (as salt: hydrochloride) showed a melting point of 145 to 146 °C.

As to `Cc1cc2c(cc1C)C(OCC(=O)N1CCN(C)CC1)N(c1cccc(F)c1)C2=O` (centres unmarked) (as salt: hydrochloride), the melting point lay within 138 to 144.5 °C. The same measure, in the same setting: with `CCCOC(=O)CC1c2cc(C)c(C)cc2C(=O)N1c1cccnc1` (centres unmarked) (as salt: hydrochloride) the figure was 201.5 to 208.5 °C.

As for `CC(C)c1cccc(C(C)C)c1O` [Propofol, 2,6-diisopropylphenol], in the series on mice [1], the “T. I.(mouse)” value is listed as 4.14 and the LD50 is 56 mg/kg. In addition, the HD50 in the series with mice [2] is 13.5 mg/kg. Regarding `CCCC(C)C1(CC)C(=O)NC(=S)NC1=O` (centres unmarked) [Thiopental Sodium, thiopental sodium], in the series with mice [1], the “T. I.(mouse)” value is 4.26 and the LD50 was 100 mg/kg. Moreover, the HD50 with mice [2] is 23.5 mg/kg.
